These results are taken from patent US8524897B2, “Crystalline oxazine derivative” (Novartis AG, priority 2011, dated 2013).

Series [1] relates to amyloid peptide 1-40 release from Chinese hamster ovary cells transfected with the human gene for amyloid precursor protein. Briefly: Test 4: Inhibition of cellular release of amyloid peptide 1-40. In kind it is cell-based. Particulars: mean IC50, Test 4, CHO cells with human APP, 24 hours; read-out: Amyloid-β1-40 release IC50. How it is done: (§1) Test 4: Inhibition of Cellular Release of Amyloid Peptide 1-40
(§2) Chinese hamster ovary cells are transfected with the human gene for amyloid precursor protein. The cells are plated at a density of 8000 cells/well into 96-well microtiter plates and cultivated for 24 hours in DMEM cell culture medium containing 10% FCS. The test compound is added to the cells at various concentrations, and the cells are cultivated for 24 hours in the presence of the test compound. The supernatants are collected, and the concentration of amyloid peptide 1-40 is determined using state of the art immunoassay techniques, for example sandwich ELISA, homogenous time-resolved fluorescence (HTRF) immunoassay, or electro-chemiluminescence immunoassay.

The nature of series [2]: Chemical stability of amorphous versus crystalline material exposed to high temperature/humidity for one week (UPLC purity, solid state). In kind it is physicochemical. How it is done: Chemical stability of amorphous versus crystalline 5-cyano-3-methyl-pyridine-2-carboxylic acid [3-((3R,6R)-5-amino-3,6-dimethyl-6-trifluoromethyl-3,6-dihydro-2H-[1,4]oxazin-3-yl)-4-fluoro-phenyl]-amide when exposed to high temperature/humidity for one week
The stability of amorphous versus crystalline 5-cyano-3-methyl-pyridine-2-carboxylic acid [3-((3R,6R)-5-amino-3,6-dimethyl-6-trifluoromethyl-3,6-dihydro-2H-[1,4]oxazin-3-yl)-4-fluoro-phenyl]-amide was tested by exposing the amorphous or crystalline material to high temperature and/or humidity for one week. After storage at high temperature and/or humidity, bulk amorphous or crystalline material was sampled and dissolved in acetonitrile and the purity analysed in a Aquity UPLC from Waters using the following conditions: […]

The nature of series [3]: Test 4: Inhibition of cellular release of amyloid peptide 1-40. Particulars: Cricetulus griseus, CHO, 24 h, mean IC50, Test 4, CHO cells with human APP, read-out: Amyloid-β1-40 release IC50. In kind it is cell-based, Chinese hamster. How it is done: as §1, §2

Usually IC50 stands for the concentration needed to halve the response being measured.

Turning to `Cc1cc(C#N)cnc1C(=O)Nc1ccc(F)c([C@]2(C)CO[C@@](C)(C(F)(F)F)C(N)=N2)c1` [Example 1 Crystalline, 5-cyano-3-methyl-pyridine-2-carboxylic acid [3-((3R,6R)-5-amino-3,6-dimethyl-6-trifluoromethyl-3,6-dihydro-2H-[1,4]oxazin-3-yl)-4-fluoro-phenyl]-amide], the IC50 in series [1] came out at 2 nM. For the same molecule, the Purity-% is 98.23% in series [2] (40° C./75% RH, one week); 98.05% in series [2] (50° C., one week, listed as Crystalline); 98.01% in series [2] (80° C., one week, listed as Crystalline); 98.7% in series [2] (RT, 0 (start), listed as Crystalline). The “Solid State” value in series [2] (40° C./75% RH, one week) is recorded as “Crystalline”; in series [2] (50° C., one week) it was “Crystalline”; in series [2] (80° C., one week, Low = lower peaks when measured by XRPD), “Crystalline,”; in series [2] (RT, 0 (start)) it was “Crystalline”.

Regarding `Cc1cc(C#N)cnc1C(=O)Nc1ccc(F)c([C@]2(C)CO[C@@](C)(C(F)(F)F)C(N)=N2)c1` [Example 1 Amorphous, 5-cyano-3-methyl-pyridine-2-carboxylic acid [3-((3R,6R)-5-amino-3,6-dimethyl-6-trifluoromethyl-3,6-dihydro-2H-[1,4]oxazin-3-yl)-4-fluoro-phenyl]-amide], the IC50 in series [3] is 2.6 nM. Further, the Purity-% turned out to be 91.6% in series [2] (50° C., one week, listed as Amorphous); 55.8% in series [2] (80° C., one week, listed as Amorphous); 96.4% in series [2] (RT, 0 (start), listed as Amorphous); 96.3% in series [2] (RT, one week).
